From patent publication US7214672B2, “Preventives/remedies for inflammatory airway diseases” (Nippon Shinyaku Co., Ltd., priority 2000, dated 2007)

System: Rat (male, female)
Experiment: Single dose toxicity study
Assay type: in vivo
Settings: rats, administered only once
Protocol: Compound 1 or 2 of the present invention was administered to rats only once, and the lethal dose thereof was determined.

| SMILES | toxicity (single dose) |
| --- | --- |
| C[C@@H]1C[C@H]2[C@@H]3CCC4=CC(=O)C=C[C@]4(C)[C@@]3(F)[C@@H](O)C[C@]2(C)[C@@]1(OC(=O)C1CC1)C(=O)COC(=O)C1CCCCC1 [Compound 2, 9-fluoro-11β,17,21-trihydroxy-16α-methyl-1,4-pregnadiene-3,20-dione 21-cyclohexanecarboxylate 17-cyclopropanecarboxylate] | low toxicity |
| C[C@@H]1C[C@H]2[C@@H]3CCC4=CC(=O)C=C[C@]4(C)[C@@]3(F)[C@@H](O)C[C@]2(C)[C@@]1(OC(=O)C1CC1)C(=O)CO [Compound 1, 9-fluoro-11β,17,21-trihydroxy-16α-methyl-1,4-pregnadiene-3,20-dione 17-cyclopropanecarboxylate] | low toxicity |
